What is called pIC50 is the IC50 on a negative log10 scale, so that one unit is a factor of ten.

pIC50: −log10 of the molar value.

We go through 32 compounds from ChEMBL document CHEMBL3813626, “Synthesis, antimalarial properties and 2D-QSAR studies of novel triazole-quinine conjugates” (Bioorg Med Chem, 2016).

This assay deals with Plasmodium falciparum. In words: Antimalarial activity against blood stage Plasmodium falciparum 3D7 infected in human erythrocytes assessed as reduction in parasitemia after 72 hrs by SYBR green I fluorescence-based method. The note with it: 3D7, 72 h. Type of assay: functional, organism-based.
Regarding `C=C[C@H]1CN2CC[C@H]1C[C@@H]2[C@H](OCc1cn(-c2ccc([N+](=O)[O-])cc2)nn1)c1ccnc2ccc(OC)cc12`, the pIC50 is 6.19.
Turning to `C=C[C@H]1CN2CC[C@H]1C[C@@H]2[C@H](OCCc1cn(-c2ccc([N+](=O)[O-])cc2)nn1)c1ccnc2ccc(OC)cc12`, the pIC50 is 6.46.
For `C=C[C@H]1CN2CC[C@H]1C[C@@H]2[C@H](OCc1cn([C@H](C(=O)N(CC)CC)C(C)C)nn1)c1ccnc2ccc(OC)cc12`, the pIC50 is 6.06.
Turning to `C=C[C@H]1CN2CC[C@H]1C[C@@H]2[C@H](OCc1cn([C@@H](Cc2ccccc2)C(=O)O)nn1)c1ccnc2ccc(OC)cc12`, the pIC50 is 5.11.
`C=C[C@H]1CN2CC[C@H]1C[C@@H]2[C@H](OCc1cn(CC(=O)N[C@@H](Cc2ccccc2)C(=O)O)nn1)c1ccnc2ccc(OC)cc12`: the pIC50 is 5.26.
`C=C[C@H]1CN2CC[C@H]1C[C@@H]2[C@H](OCc1cn(-c2ccccc2C#N)nn1)c1ccnc2ccc(OC)cc12`: the pIC50 is 6.00.
With `C=C[C@H]1CN2CC[C@H]1C[C@@H]2[C@H](OCCc1cn(-c2ccccc2[N+](=O)[O-])nn1)c1ccnc2ccc(OC)cc12`, the pIC50 was 5.48.
Regarding `C=C[C@H]1CN2CC[C@H]1C[C@@H]2[C@H](OCc1cn(CC(=O)N[C@@H](CC(C)C)C(=O)O)nn1)c1ccnc2ccc(OC)cc12`, the negative logarithm of the IC50 (pIC50) is 4.92.
For `C=C[C@H]1CN2CC[C@H]1C[C@@H]2[C@H](OCc1cn(Cc2ccc([N+](=O)[O-])cc2)nn1)c1ccnc2ccc(OC)cc12` the value was 5.92; for `C=C[C@H]1CN2CC[C@H]1C[C@@H]2[C@H](OCc1cn(Cn2nnc3ccccc32)nn1)c1ccnc2ccc(OC)cc12`, 5.32; for `C=C[C@H]1CN2CC[C@H]1C[C@@H]2[C@H](OCCc1cn(-c2ccc(C)cc2)nn1)c1ccnc2ccc(OC)cc12`, 7.40.
Regarding `C=C[C@H]1CN2CC[C@H]1C[C@@H]2[C@H](OCc1cn(-c2ccccn2)nn1)c1ccnc2ccc(OC)cc12`, the pIC50 is 5.24.
For the compound `C=C[C@H]1CN2CC[C@H]1C[C@@H]2[C@H](OCc1cn([C@@H](CC(C)C)C(=O)O)nn1)c1ccnc2ccc(OC)cc12`, the pIC50 was 4.51.
In the case of `C=C[C@H]1CN2CC[C@H]1C[C@@H]2[C@H](OCc1cn(-c2ccccc2Cl)nn1)c1ccnc2ccc(OC)cc12`, the pIC50 is 4.70.
As for `C=C[C@H]1CN2CC[C@H]1C[C@@H]2[C@H](OCCc1cn(Cc2ccccc2)nn1)c1ccnc2ccc(OC)cc12`, the pIC50 is 7.52.
With `C=C[C@H]1CN2CC[C@H]1C[C@@H]2[C@H](OCCc1cn(-c2ccccc2Cl)nn1)c1ccnc2ccc(OC)cc12`, the pIC50 is 7.43.
On to `C=C[C@H]1CN2CC[C@H]1C[C@@H]2[C@H](OCCc1cn(CCCc2ccccc2)nn1)c1ccnc2ccc(OC)cc12`, for which the pIC50 is 7.57.
As to `C=C[C@H]1CN2CC[C@H]1C[C@@H]2[C@H](OCc1cn(-c2ccccc2[N+](=O)[O-])nn1)c1ccnc2ccc(OC)cc12`, the pIC50 is 5.89.
In the case of `C=C[C@H]1CN2CC[C@H]1C[C@@H]2[C@H](OCc1cn(CCCc2ccccc2)nn1)c1ccnc2ccc(OC)cc12`, the pIC50 is 6.05.
Take `C=C[C@H]1CN2CC[C@H]1C[C@@H]2[C@H](OCc1cn(-c2cccc(C#N)c2)nn1)c1ccnc2ccc(OC)cc12`: the pIC50 is 5.70.
The figure for `C=C[C@H]1CN2CC[C@H]1C[C@@H]2[C@H](OCc1cn(CC(OC)OC)nn1)c1ccnc2ccc(OC)cc12` is 5.47; for `C=C[C@H]1CN2CC[C@H]1C[C@@H]2[C@H](OCc1cn(-c2ccc(Cl)cc2)nn1)c1ccnc2ccc(OC)cc12` it is 6.05.
Take `C=C[C@H]1CN2CC[C@H]1C[C@@H]2[C@H](OCc1cn([C@@H](Cc2c[nH]c3ccccc23)C(=O)O)nn1)c1ccnc2ccc(OC)cc12`: the negative-log IC50 (pIC50) is 5.08.
Take `C=C[C@H]1CN2CC[C@H]1C[C@@H]2[C@H](OCc1cn(/C=C/n2nnc3ccccc32)nn1)c1ccnc2ccc(OC)cc12`: the negative-log IC50 (pIC50) was 5.82.
As for `C=C[C@H]1CN2CC[C@H]1C[C@@H]2[C@H](OCc1cn([C@H](C(=O)O)C(C)C)nn1)c1ccnc2ccc(OC)cc12`, the pIC50 is 4.70.
Consider `C=C[C@H]1CN2CC[C@H]1C[C@@H]2[C@H](OCc1cn(Cc2ccc(C)cc2)nn1)c1ccnc2ccc(OC)cc12`, for which the pIC50 is 6.35.
Consider `C=C[C@H]1CN2CC[C@H]1C[C@@H]2[C@H](OCCc1cn(-c2ccc(Cl)cc2)nn1)c1ccnc2ccc(OC)cc12`, for which the pIC50 is 7.39.
Regarding `C=C[C@H]1CN2CC[C@H]1C[C@@H]2[C@H](OCc1cn(-c2ccc(OC)cc2)nn1)c1ccnc2ccc(OC)cc12`, the pIC50 was 5.66.
On to `C=C[C@H]1CN2CC[C@H]1C[C@@H]2[C@H](OCc1cn([C@@H](C)C(=O)O)nn1)c1ccnc2ccc(OC)cc12`, for which the pIC50 is 4.39.
The figure for `C=C[C@H]1CN2CC[C@H]1C[C@H]2[C@H](O)c1ccnc2ccc(OC)cc12` [QUININE] is 7.24; for `C=C[C@H]1CN2CC[C@H]1C[C@@H]2[C@H](OCCc1cn(-c2ccc(OC)cc2)nn1)c1ccnc2ccc(OC)cc12` it is 7.37; for `C=C[C@H]1CN2CC[C@H]1C[C@@H]2[C@H](OCc1cn(Cc2ccccc2)nn1)c1ccnc2ccc(OC)cc12` it is 6.10.
